Results from PubChem BioAssay (NCI).
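Cultured in 96-well plates, cells were exposed to test compound for 48 hours across five concentrations. GI50 = concentration required for 50% inhibition of growth. TGI is the concentration that stops growth completely.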

Key:
Experiment in all cases: NCI-60 cell line screen, 48 h
[1] = test system: NCI-H226 lung
[2] = test system: PC-3 prostate
[3] = test system: CCRF-CEM leukemia
[4] = test system: IGROV1 ovarian
[5] = test system: T-47D breast
[6] = test system: U251 CNS
[7] = test system: HT29 colon
[8] = test system: RXF 393 renal
[9] = test system: SK-OV-3 ovarian
[10] = test system: A498 renal

Compound | TGI [1] [µM] | TGI [2] [µM] | TGI [3] [µM] | TGI [4] [µM] | TGI [5] [µM] | TGI [6] [µM] | TGI [7] [µM] | TGI [8] [µM] | TGI [9] [µM] | TGI [10] [µM] | GI50 [1] [µM]
O=C(Nc1ccccc1)O/N=C(/CBr)c1ccccc1 | 60.8 | 30.3 | > 100 | 36.9 | 32.6 | 30.5 | > 100 | 48 | 95 | 64.1 | 
CCNC(=O)Nc1cccc(C)n1 | > 100 | > 100 | > 100 | > 100 | > 100 | > 100 | > 100 | > 100 | > 100 | > 100 | 
c1ccc(CNc2c3c(nc4ccccc24)CCC3)cc1 | 35.9 | 33.3 | 20.9 | 42.4 | 38.7 | 30.4 | 50.1 | 30.4 | 36.2 | 31.7 | 
Cc1ccc(S(=O)(=O)N/C(=C\C=C\c2ccccc2)C(=O)C(C)(C)C)cc1 | > 100 | > 100 | > 100 | > 100 | > 100 | > 100 | > 100 | > 100 | > 100 | > 100 | 
O=C(NCCN(CCNC(=O)c1cccc(=O)n1O)CCN(CCNC(=O)c1cccc(=O)n1O)CCNC(=O)c1cccc(=O)n1O)c1cccc(=O)n1O | > 100 | > 100 | > 100 | > 100 | > 100 | > 100 | > 100 | > 100 | > 100 | > 100 | 
CN(C)c1ccc(/C=N/Nc2nc3ccccc3c(=O)n2-c2ccccc2)cc1 | > 100 | > 100 | > 100 | > 100 | > 100 | > 100 | > 100 | > 100 | > 100 | > 100 | 
CC(C)(C)OC(=O)n1cc(C2CNC(=O)C23CCC(=O)N3Cc2ccccc2)c2ccccc21 (stereo unspecified) | 41.4 | 79.3 | 55.7 | 33.6 | > 100 | 37.3 | 37.3 | 44.8 | 58.3 | 35.3 | 
S=C1c2ccccc2NC(=NC2CCCC2)C2CSCN12 (stereo unspecified) | > 100 | > 100 | > 100 | > 100 | > 100 | > 100 | > 100 | > 100 | > 100 | > 100 | 
COc1ccc(N2C=Nn3c(nc4sc(C)c(C)c4c3=O)C2)cc1 | > 100 | > 100 | > 100 | > 100 | > 100 | > 100 | > 100 | > 100 | > 100 | > 100 | 
COC(=O)c1cc(C)ccc1CC(Cc1cccc(C)c1)C(=O)OC (stereo unspecified) | > 100 | > 100 | > 100 | > 100 | > 100 | > 100 | > 100 | 73.6 | 27.1 | > 100 | 
CC(C)Oc1c(-c2c(OC(C)C)c(=O)c2=O)c(=O)c1=O | > 100 | > 100 | > 100 | > 51.5 | > 100 | > 59.9 | > 58.3 | > 78.5 | > 100 | > 100 | 
CSc1nc(NC2CCCC2)c2cc[nH]c2n1 | > 100 | > 100 | > 100 | > 100 | > 100 | > 100 | > 100 | > 100 | > 100 | 80.3 | 
Cn1ccnc1S/C(=C\C=C(C#N)C#N)c1ccc(Cl)cc1 | > 22.8 | 9.22 | > 11.2 | 16.1 | > 100 | 6.85 | 16.2 | 5.4 | 38.8 | 3.16 | 3.97
CC(=O)NNc1nc(C)c(C(/C=C/c2ccc3c(c2)OCO3)=N/Nc2ccccc2)s1 | > 100 | > 100 | > 100 | > 100 | > 100 | > 100 | > 100 | > 100 | > 100 | > 100 | 
COc1cc2c(cc1C[N+](C)(C)CSc1ccccc1)-c1ccccc1CC2 | 23.6 | 11 | 14.3 | 12.5 | 16.2 | 27.8 | 13.1 | 23.1 | 26.1 | 37.9 | 
Cn1ccnc1Sc1ccc(/C=N/NC(=O)c2ccccc2O)cc1[N+](=O)[O-] | > 100 | > 100 | > 100 | > 100 | > 100 | > 100 | > 100 | > 100 | > 100 | > 100 | 
COc1cccc(N2C(=O)C3c4[nH]c5ccccc5c4C4c5ccccc5CCC4C3C2=O)c1 (stereo unspecified) | > 7.52 | > 10 | > 10 | > 10 | > 10 | > 8.12 | > 10 | > 10 | > 7.28 | 8.53 | 
CCN(CC)Cc1nc2sc3c(c2c(=O)n1-c1ccccc1)CCCC3 | 33 | 34 | > 100 | 39 | 44.7 | 31.3 | 29.3 | 37.6 | 83.3 | 45.2 | 
